Reference: US12391737B2, “Soluble NPY2 receptor agonists” (Boehringer Ingelheim International GmbH, priority 2020, dated 2025)
*1 amine or outer side, *2 acyl side, *3 side chain or, on linkers, in order; H or OH if unused. Where a SMILES comes first, the peptide text is derived from it. Side-chain parts run from the residue outwards. The star is where a group is joined. C18 diacid = O=C(O)CCCCCCCCCCCCCCCCC(=O)*; γGlu = O=C(O)[C@H](CCC(=O)[*:2])N[*:1]; Isovaleryl = CC(C)CC(=O)*; Ahx = NCCCCCC(=O)O

Assays:
Solubility determination = details: for Sol6: pH 6; for Sol7: pH 7
Outline: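 Shake-flask style: 10 mg/ml peptide (TFA salt), 0.1 M sodium diphosphate pH 6.4/7.0, 600 rpm, 2 h, RT; filter; dilute 1 mg/ml in 50% MeCN; RP-UPLC, 0–100% B over 2 min, 50 °C. Solubility = sample/control area ratio. Final pH recorded.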

[1] = biological target: T1, Human Neuropeptide Y2 Receptor (Homo sapiens, UniProt P49146); assay: Radioligand binding competition assay (RLB); details: Table 3, 125I-PYY(1-36) competition; read-out: Ki
T1 construct: purchased CHEMICON HTS066M
T1 sequence (P49146 1-381): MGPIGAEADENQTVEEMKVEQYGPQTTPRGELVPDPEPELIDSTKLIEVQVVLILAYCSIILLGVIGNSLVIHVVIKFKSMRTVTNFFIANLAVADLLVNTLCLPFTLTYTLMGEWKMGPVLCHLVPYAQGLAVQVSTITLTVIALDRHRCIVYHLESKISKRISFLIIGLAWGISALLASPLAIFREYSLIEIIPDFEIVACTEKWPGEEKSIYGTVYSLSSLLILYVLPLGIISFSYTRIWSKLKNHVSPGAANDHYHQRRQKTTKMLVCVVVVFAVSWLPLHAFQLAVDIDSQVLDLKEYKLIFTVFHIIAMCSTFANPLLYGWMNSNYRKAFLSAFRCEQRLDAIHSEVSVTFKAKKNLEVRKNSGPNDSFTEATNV
Outline: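 Peptides were serially diluted from 1 mM DMSO stocks and competed for radioligand binding to receptor membranes (0.5 μg/well) over 2 h at room temperature, pH 7.4 HEPES buffer. Bound radioactivity on filters was counted by scintillation, and IC50 was derived by nonlinear regression.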

Sol6 (Solubility determination) [mg/mL] | Sol7 (Solubility determination) [mg/mL] | Ki [1] [nM] | Structure (SMILES)
0.0 | 9.0 | 0.74 | CC(C)CC(=O)N[C@@H](C)C(=O)N1CCC[C@H]1C(=O)N[C@@H](CCC(=O)O)C(=O)N[C@@H](CCCCNC(=O)CCCCCNC(=O)CC[C@H](NC(=O)CCCCCCCCCCCCCCCCC(=O)O)C(=O)O)C(=O)N1CCC[C@H]1C(=O)N[C@@H](CCC(=O)O)C(=O)N[C@@H](C)C(=O)N1CCC[C@H]1C(=O)N[C@@H](C)C(=O)N[C@@H](CO)C(=O)N1CCC[C@H]1C(=O)N[C@@H](CCC(=O)O)C(=O)N[C@@H](CCC(=O)O)C(=O)N[C@@H](CC(C)C)C(=O)N[C@@H](CCC(N)=O)C(=O)N[C@@H](CCCNC(=N)N)C(=O)N[C@@H](Cc1ccc(O)cc1)C(=O)N[C@@H](Cc1ccc(O)cc1)C(=O)N[C@H](C(=O)N[C@@H](CO)C(=O)N[C@@H](CC(C)C)C(=O)N[C@@H](CCCNC(=N)N)C(=O)N[C@@H](Cc1c[nH]cn1)C(=O)N[C@@H](Cc1ccc(O)cc1)C(=O)N[C@@H](Cc1ccc(O)cc1)C(=O)N[C@@H](CC(N)=O)C(=O)N[C@@H](Cc1c[nH]c2ccccc12)C(=O)N[C@@H](CC(C)C)C(=O)N[C@H](C(=O)N[C@@H](CCCNC(=N)N)C(=O)N[C@@H](CCC(N)=O)C(=O)N[C@@H](CCCNC(=N)N)C(=O)N[C@@H](Cc1ccc(O)cc1)C(N)=O)[C@@H](C)O)C(C)C [Compound 192, N{alpha-4}-(3-methylbutanoyl)-N{epsilon-7}-(6-[(4S)-4-carboxy-4-(17-carboxyheptadecanamido)butanamido]hexanoyl)-[4A,7K,9E,10A,11P,18Q,22V,28Y,30W,31L]-hPYY(4-36)] (Isovaleryl-APEK([Ahx-γGlu-C18 diacid])PEAPASPEELQRYYVSLRHYYNWLTRQRY-NH2)
9.7 | 9.6 | 9.76 | CC(C)CC(=O)N[C@@H](C)C(=O)N1CCC[C@H]1C(=O)N[C@@H](CCC(=O)O)C(=O)N[C@@H](CCCCNC(=O)CCCCCNC(=O)CC[C@H](NC(=O)CCCCCCCCCCCCCCCCC(=O)O)C(=O)O)C(=O)N1CCC[C@H]1C(=O)N[C@@H](CCC(=O)O)C(=O)N[C@@H](CCC(=O)O)C(=O)N[C@@H](CC(=O)O)C(=O)N[C@@H](CCC(N)=O)C(=O)N[C@H](C(=O)N1CCC[C@H]1C(=O)N[C@@H](CCC(=O)O)C(=O)N[C@@H](CCC(=O)O)C(=O)N[C@@H](CC(C)C)C(=O)N[C@@H](CCC(N)=O)C(=O)N[C@@H](CCCNC(=N)N)C(=O)N[C@@H](Cc1ccc(O)cc1)C(=O)N[C@@H](Cc1ccc(O)cc1)C(=O)N[C@H](C(=O)N[C@@H](CO)C(=O)N[C@@H](CC(C)C)C(=O)N[C@@H](CCCNC(=N)N)C(=O)N[C@@H](Cc1c[nH]cn1)C(=O)N[C@@H](Cc1ccc(O)cc1)C(=O)N[C@@H](Cc1ccc(O)cc1)C(=O)N[C@@H](CC(N)=O)C(=O)N[C@@H](Cc1c[nH]c2ccccc12)C(=O)N[C@@H](CC(C)C)C(=O)N[C@H](C(=O)N[C@@H](CCCNC(=N)N)C(=O)N[C@@H](CCC(N)=O)C(=O)N[C@@H](CCCNC(=N)N)C(=O)N[C@@H](Cc1ccc(O)cc1)C(N)=O)[C@@H](C)O)C(C)C)[C@@H](C)O [Compound 144, N{alpha-4}-(3-methylbutanoyl)-N{epsilon-7}-(6-[(4S)-4-carboxy-4-(17-carboxyheptadecanamido)butanamido]hexanoyl)-[4A,7K,9E,12Q,13T,18Q,22V,28Y,30W,31L]-hPYY(4-36)]

Further lines, the molecule ahead of its results:

Structure (SMILES) | Sol6 (Solubility determination) [mg/mL] | Sol7 (Solubility determination) [mg/mL] | Ki [1] [nM]
CC(C)CC(=O)N[C@@H](C)C(=O)N1CCC[C@H]1C(=O)N[C@@H](C)C(=O)N[C@@H](CCCCNC(=O)CCCCCNC(=O)CC[C@H](NC(=O)CCCCCCCCCCCCCCCCC(=O)O)C(=O)O)C(=O)N1CCC[C@H]1C(=O)N[C@@H](CCC(=O)O)C(=O)N[C@@H](CCC(=O)O)C(=O)N[C@@H](CC(=O)O)C(=O)N[C@@H](C)C(=O)N[C@@H](CO)C(=O)N1CCC[C@H]1C(=O)N[C@@H](CCC(=O)O)C(=O)N[C@@H](CCC(=O)O)C(=O)N[C@@H](CC(C)C)C(=O)N[C@@H](CCC(N)=O)C(=O)N[C@@H](CCCNC(=N)N)C(=O)N[C@@H](Cc1ccc(O)cc1)C(=O)N[C@@H](Cc1ccc(O)cc1)C(=O)N[C@H](C(=O)N[C@@H](CCC(N)=O)C(=O)N[C@@H](CC(C)C)C(=O)N[C@@H](CCCNC(=N)N)C(=O)N[C@@H](Cc1c[nH]cn1)C(=O)N[C@@H](Cc1ccc(O)cc1)C(=O)N[C@@H](Cc1ccc(O)cc1)C(=O)N[C@@H](CC(N)=O)C(=O)N[C@@H](Cc1c[nH]c2ccccc12)C(=O)N[C@@H](CC(C)C)C(=O)N[C@H](C(=O)N[C@@H](CCCNC(=N)N)C(=O)N[C@@H](CCC(N)=O)C(=O)N[C@@H](CCCNC(=N)N)C(=O)N[C@@H](Cc1ccc(O)cc1)C(N)=O)[C@@H](C)O)C(C)C [Compound 59, N{alpha-4}-(3-methylbutanoyl)-N{epsilon-7}-(6-[(4S)-4-carboxy-4-(17-carboxyheptadecanamido)butanamido]hexanoyl)-[4A,6A,7K,9E,18Q,22V,23Q,28Y,30W,31L]-hPYY(4-36)] | 9.7 | 9.6 | 1.93
CC[C@H](C)[C@H](NC(=O)[C@H](CCC(=O)O)NC(=O)[C@H](CCC(=O)O)NC(=O)[C@@H]1CCCN1C(=O)[C@H](CCC(N)=O)NC(=O)[C@H](C)NC(=O)[C@H](CC(=O)O)NC(=O)[C@H](CCC(=O)O)NC(=O)[C@H](CCC(=O)O)NC(=O)[C@@H]1CCCN1C(=O)[C@H](CCCCNC(=O)CCCCCNC(=O)CC[C@H](NC(=O)CCCCCCCCCCCCCCCCC(=O)O)C(=O)O)NC(=O)[C@H](CCC(=O)O)NC(=O)[C@@H]1CCCN1C(=O)[C@H](C)NC(=O)CC(C)C)C(=O)N[C@@H](CCC(N)=O)C(=O)N[C@@H](CCCNC(=N)N)C(=O)N[C@@H](Cc1ccc(O)cc1)C(=O)N[C@@H](Cc1ccc(O)cc1)C(=O)N[C@H](C(=O)N[C@@H](CO)C(=O)N[C@@H](CC(C)C)C(=O)N[C@@H](CCCNC(=N)N)C(=O)N[C@@H](Cc1c[nH]cn1)C(=O)N[C@@H](Cc1ccc(O)cc1)C(=O)N[C@@H](Cc1ccc(O)cc1)C(=O)N[C@@H](CC(N)=O)C(=O)N[C@@H](Cc1c[nH]c2ccccc12)C(=O)N[C@@H](CC(C)C)C(=O)N[C@H](C(=O)N[C@@H](CCCNC(=N)N)C(=O)N[C@@H](CCC(N)=O)C(=O)N[C@@H](CCCNC(=N)N)C(=O)N[C@@H](Cc1ccc(O)cc1)C(N)=O)[C@@H](C)O)C(C)C [Compound 81, N{alpha-4}-(3-methylbutanoyl)-N{epsilon-7}-(6-[(4S)-4-carboxy-4-(17-carboxyheptadecanamido)butanamido]hexanoyl)-[4A,7K,9E,13Q,17I,18Q,22V,28Y,30W,31L]-hPYY(4-36)] | 8.9 | 8.9 | 2.65
CC[C@H](C)[C@H](NC(=O)[C@H](CCC(=O)O)NC(=O)[C@H](CCC(=O)O)NC(=O)[C@@H]1CCCN1C(=O)[C@H](CCCCNC(=O)CCCCCNC(=O)CC[C@H](NC(=O)CCCCCCCCCCCCCCCCC(=O)O)C(=O)O)NC(=O)[C@H](CCC(=O)O)NC(=O)[C@@H]1CCCN1C(=O)[C@H](C)NC(=O)CC(C)C)C(=O)N[C@@H](C)C(=O)N[C@H](C(=O)N1CCC[C@H]1C(=O)N[C@@H](CCC(=O)O)C(=O)N[C@@H](CCC(=O)O)C(=O)N[C@@H](CC(C)C)C(=O)N[C@@H](CCC(N)=O)C(=O)N[C@@H](CCCNC(=N)N)C(=O)N[C@@H](Cc1ccc(O)cc1)C(=O)N[C@@H](Cc1ccc(O)cc1)C(=O)N[C@H](C(=O)N[C@@H](CO)C(=O)N[C@@H](CC(C)C)C(=O)N[C@@H](CCCNC(=N)N)C(=O)N[C@@H](Cc1c[nH]cn1)C(=O)N[C@@H](Cc1ccc(O)cc1)C(=O)N[C@@H](Cc1ccc(O)cc1)C(=O)N[C@@H](CC(N)=O)C(=O)N[C@@H](Cc1c[nH]c2ccccc12)C(=O)N[C@@H](CC(C)C)C(=O)N[C@H](C(=O)N[C@@H](CCCNC(=N)N)C(=O)N[C@@H](CCC(N)=O)C(=O)N[C@@H](CCCNC(=N)N)C(=O)N[C@@H](Cc1ccc(O)cc1)C(N)=O)[C@@H](C)O)C(C)C)[C@@H](C)O [Compound 45, N{alpha-4}-(3-methylbutanoyl)-N{epsilon-7}-(6-[(4S)-4-carboxy-4-(17-carboxyheptadecanamido)butanamido]hexanoyl)-[4A,7K,9E,11I,13T,18Q,22V,28Y,30W,31L]-hPYY(4-36)] | >10.0 | >10.0 | 6.17
